# Activity calls are given as the source filed them.
# Experiments:
# [1] = target: Intestinal-type alkaline phosphatase (Homo sapiens, UniProt P09923); assay: activation of human intestinal alkaline phosphatase – biochemical, dose response (AID 488873); format: functional
# [2] = target: Albumin (Bos taurus, UniProt P02769); assay: Counterscreen for inhibitors of T-cell receptor (TCR)-CD3 interaction: Fluorescence-based biochemical high throughput dose response assay to identify inhibitors of T-cell receptor (TCR)-CD3 interaction using a TAMRA-labeled BSA probe.; format: functional
# [3] = target: Intestinal-type alkaline phosphatase (Mus musculus, UniProt P24822); assay: PubChem AID 488785; format: functional
# [4] = target: T1, Alkaline phosphatase, tissue-nonspecific isozyme (Homo sapiens, UniProt P05186); assay: TNAP enzyme inhibition by screening hits, dose response, selectivity assay for mouse IAP inhibitor project, biochemical, human TNAP, uHTS hits (AID 488906); format: functional
# T1 sequence (P05186 whole entry): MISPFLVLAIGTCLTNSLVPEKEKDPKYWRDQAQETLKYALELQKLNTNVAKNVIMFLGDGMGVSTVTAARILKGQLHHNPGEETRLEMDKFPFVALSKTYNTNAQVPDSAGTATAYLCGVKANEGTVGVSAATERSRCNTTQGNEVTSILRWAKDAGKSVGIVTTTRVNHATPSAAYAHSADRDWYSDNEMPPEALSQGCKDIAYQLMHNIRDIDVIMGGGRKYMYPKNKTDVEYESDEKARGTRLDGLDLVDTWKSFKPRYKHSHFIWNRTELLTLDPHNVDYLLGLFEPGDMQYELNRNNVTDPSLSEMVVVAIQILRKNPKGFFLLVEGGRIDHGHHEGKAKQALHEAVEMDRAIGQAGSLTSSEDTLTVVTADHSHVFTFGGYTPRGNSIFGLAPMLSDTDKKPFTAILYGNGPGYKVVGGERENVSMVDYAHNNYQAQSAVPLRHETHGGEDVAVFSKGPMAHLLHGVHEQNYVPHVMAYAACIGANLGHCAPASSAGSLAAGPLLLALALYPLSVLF
# [5] = tested on: BJ; assay: BJ-TERT-LT-ST fibroblast viability loss – cell-based, RAS-independent, luminescence, dose response (AID 1935); format: functional; conditions: Homo sapiens;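 further: BJ fibroblasts immortalized with TERT plus LT and ST oncogenes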
# [6] = toxicity toward cultured mammalian cells – cell-based, plate reader, cherry-pick samples, cytotoxicity control, dose response (AID 504397); format: functional
# [7] = DRD fibroblast viability loss – cell-based, non-viral oncogenic, luminescence, dose response (AID 1934); format: functional; conditions: Homo sapiens
# [8] = target: T2, CAAX prenyl protease 2 (Saccharomyces cerevisiae S288c, UniProt Q03530); format: biochemical
# T2 sequence (Q03530 whole entry): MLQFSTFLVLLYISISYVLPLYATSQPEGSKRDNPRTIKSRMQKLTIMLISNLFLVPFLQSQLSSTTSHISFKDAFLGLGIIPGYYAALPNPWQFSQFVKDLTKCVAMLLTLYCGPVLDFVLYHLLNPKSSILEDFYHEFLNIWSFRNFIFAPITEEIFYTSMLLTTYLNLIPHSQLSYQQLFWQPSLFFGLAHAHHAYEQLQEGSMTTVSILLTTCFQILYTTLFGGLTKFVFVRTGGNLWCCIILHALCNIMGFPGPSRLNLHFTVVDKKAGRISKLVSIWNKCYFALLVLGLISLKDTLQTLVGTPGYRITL
# [9] = target: CAAX prenyl protease 2 (Homo sapiens, UniProt Q9Y256); assay: inhibition of Ras-converting CAAX protease Rce1 – biochemical, yeast membranes, quenched-peptide fluorescence, cherry-pick, dose response (AID 588849)
# [10] = tested on: BJ; assay: BJ-TERT fibroblast viability loss – cell-based, RAS-independent, luminescence, dose response (AID 1933); format: functional; conditions: Homo sapiens
# [11] = tested on: BJ; assay: cells; format: functional, cell-based; conditions: Homo sapiens
# [12] = target: T3, Tyrosine-protein phosphatase non-receptor type 22 (Homo sapiens, UniProt Q9Y2R2); format: functional
# T3 sequence (Q9Y2R2 whole entry): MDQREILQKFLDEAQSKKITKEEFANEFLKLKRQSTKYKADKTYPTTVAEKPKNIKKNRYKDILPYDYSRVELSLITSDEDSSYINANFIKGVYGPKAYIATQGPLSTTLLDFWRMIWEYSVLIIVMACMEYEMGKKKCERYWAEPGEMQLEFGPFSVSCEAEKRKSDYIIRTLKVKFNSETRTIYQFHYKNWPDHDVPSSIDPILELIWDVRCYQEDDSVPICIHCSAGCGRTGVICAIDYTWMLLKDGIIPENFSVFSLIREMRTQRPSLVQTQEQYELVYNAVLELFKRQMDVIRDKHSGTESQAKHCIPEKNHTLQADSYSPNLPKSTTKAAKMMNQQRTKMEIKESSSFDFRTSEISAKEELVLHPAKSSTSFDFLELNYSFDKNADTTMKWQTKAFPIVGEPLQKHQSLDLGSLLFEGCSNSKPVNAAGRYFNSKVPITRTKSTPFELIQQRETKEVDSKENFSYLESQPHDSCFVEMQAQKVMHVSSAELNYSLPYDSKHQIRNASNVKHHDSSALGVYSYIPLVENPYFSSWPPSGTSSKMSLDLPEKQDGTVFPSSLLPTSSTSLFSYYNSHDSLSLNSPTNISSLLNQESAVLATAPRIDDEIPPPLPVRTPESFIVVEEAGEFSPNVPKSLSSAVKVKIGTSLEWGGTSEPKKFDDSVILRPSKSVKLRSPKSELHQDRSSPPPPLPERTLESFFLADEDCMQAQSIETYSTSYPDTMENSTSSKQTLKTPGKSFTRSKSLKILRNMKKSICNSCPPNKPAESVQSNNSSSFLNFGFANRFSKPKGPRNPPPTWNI
# [13] = target: T3, Tyrosine-protein phosphatase non-receptor type 22; format: functional; remark: listed apart in the source
# [14] = target: T4, Tyrosine-protein phosphatase non-receptor type 7 (Homo sapiens, UniProt P35236); format: functional
# T4 sequence (P35236 whole entry): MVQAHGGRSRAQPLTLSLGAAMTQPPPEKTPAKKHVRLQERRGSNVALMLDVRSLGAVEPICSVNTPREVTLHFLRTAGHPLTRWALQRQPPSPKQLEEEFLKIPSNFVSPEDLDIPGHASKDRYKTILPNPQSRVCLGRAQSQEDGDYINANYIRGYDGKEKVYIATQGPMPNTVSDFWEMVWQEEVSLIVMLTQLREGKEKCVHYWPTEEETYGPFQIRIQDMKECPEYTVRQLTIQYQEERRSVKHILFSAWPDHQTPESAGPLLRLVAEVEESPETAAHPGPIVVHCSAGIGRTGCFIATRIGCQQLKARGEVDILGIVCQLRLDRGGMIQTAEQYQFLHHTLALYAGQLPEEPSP
# [15] = target: T5, G-protein coupled receptor 35 (Homo sapiens, UniProt Q9HC97); assay: SAR analysis of Antagonists of the GPR35 Receptor using an Image-Based Assay - Set 3. [Related pubchem assays (depositor defined):AID2013, AID2026]; format: functional
# [16] = target: T6, Cannabinoid receptor 2 (Homo sapiens, UniProt P34972); assay: SAR analysis of agonists of the Cannabinoid Receptor 2 using an Image-Based Assay. [Related pubchem assays (depositor defined):AID2013, AID2026]; format: functional
# [17] = Luminescence Cell-Based Dose Retest to Confirm Inhibitors of Cancer Stem Cells. [Related pubchem assays (depositor defined):AID2717, AID2721]; format: functional; conditions: Homo sapiens
# [18] = target: T6, Cannabinoid receptor 2; assay: SAR analysis of antagonists of the Cannabinoid Receptor 2 using an Image-Based Assay. [Related pubchem assays (depositor defined):AID2013, AID2026]; format: functional
# [19] = target: T7, Cannabinoid receptor 1 (Homo sapiens, UniProt P21554); assay: SAR analysis of antagonists of the Cannabinoid Receptor 1 using an Image-Based Assay - Set 2. [Related pubchem assays (depositor defined):AID2013, AID2026]; format: functional
# [20] = target: T7, Cannabinoid receptor 1; assay: SAR analysis of agonists of the Cannabinoid Receptor 1 using an Image-Based Assay - Set 2. [Related pubchem assays (depositor defined):AID2013, AID2026]; format: functional
# [21] = target: T5, G-protein coupled receptor 35; assay: SAR analysis of Agonists of the GPR35 Receptor using an Image-Based Assay - Set 2. [Related pubchem assays (depositor defined):AID2013, AID2026]; format: functional
# [22] = target: G-protein coupled receptor 55 (Homo sapiens, UniProt Q9Y2T6); assay: inhibition of LPI-stimulated GPR55 beta-arrestin translocation – imaging, U2OS, beta-arrestin-GFP, LPI agonist, primary screen (AID 2013); format: functional;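 further: antagonist potency measured as reduced agonist-driven arrestin aggregation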
# [23] = Fluorescence-based cell-based high throughput dose response assay for inhibitors of the interaction of nucleotide-binding oligomerization domain containing 2 (NOD2) and the receptor-interacting serine-threonine kinase 2 (RIPK2).; format: functional; conditions: Homo sapiens
# [24] = target: Beta Lactamase (Pseudomonas aeruginosa, UniProt Q932Y6); assay: BLA reporter interference, concentration series – BLA reporter cells, FRET fluorescence, artefact control for NOD2-RIPK2 interaction inhibitor project, dose response (AID 651552); format: functional, cell-based
# [25] = target: Hexokinase-1 (Homo sapiens, UniProt P19367); assay: HK1 enzyme activation by HKDC1 hits – biochemical, selectivity assay for HKDC1 activator project, dose response (AID 504762); format: functional
# [26] = target: Glucose-6-phosphate 1-dehydrogenase (Homo sapiens, UniProt P11413); assay: inhibition of Homo sapiens G6PD, dose series – biochemical, fluorescence, selectivity assay for P. falciparum G6PD inhibitor project, dose response (AID 504792); format: functional
# [27] = target: Heat shock protein HSP 90-alpha (Homo sapiens, UniProt P07900); format: functional, organism-based
# [28] = target: T8, Hexokinase HKDC1 (Homo sapiens, UniProt Q2TB90); assay: activation of HKDC1 glucose phosphorylation – biochemical, W721R variant, dose response (AID 504730); format: functional
# T8 sequence (Q2TB90 whole entry): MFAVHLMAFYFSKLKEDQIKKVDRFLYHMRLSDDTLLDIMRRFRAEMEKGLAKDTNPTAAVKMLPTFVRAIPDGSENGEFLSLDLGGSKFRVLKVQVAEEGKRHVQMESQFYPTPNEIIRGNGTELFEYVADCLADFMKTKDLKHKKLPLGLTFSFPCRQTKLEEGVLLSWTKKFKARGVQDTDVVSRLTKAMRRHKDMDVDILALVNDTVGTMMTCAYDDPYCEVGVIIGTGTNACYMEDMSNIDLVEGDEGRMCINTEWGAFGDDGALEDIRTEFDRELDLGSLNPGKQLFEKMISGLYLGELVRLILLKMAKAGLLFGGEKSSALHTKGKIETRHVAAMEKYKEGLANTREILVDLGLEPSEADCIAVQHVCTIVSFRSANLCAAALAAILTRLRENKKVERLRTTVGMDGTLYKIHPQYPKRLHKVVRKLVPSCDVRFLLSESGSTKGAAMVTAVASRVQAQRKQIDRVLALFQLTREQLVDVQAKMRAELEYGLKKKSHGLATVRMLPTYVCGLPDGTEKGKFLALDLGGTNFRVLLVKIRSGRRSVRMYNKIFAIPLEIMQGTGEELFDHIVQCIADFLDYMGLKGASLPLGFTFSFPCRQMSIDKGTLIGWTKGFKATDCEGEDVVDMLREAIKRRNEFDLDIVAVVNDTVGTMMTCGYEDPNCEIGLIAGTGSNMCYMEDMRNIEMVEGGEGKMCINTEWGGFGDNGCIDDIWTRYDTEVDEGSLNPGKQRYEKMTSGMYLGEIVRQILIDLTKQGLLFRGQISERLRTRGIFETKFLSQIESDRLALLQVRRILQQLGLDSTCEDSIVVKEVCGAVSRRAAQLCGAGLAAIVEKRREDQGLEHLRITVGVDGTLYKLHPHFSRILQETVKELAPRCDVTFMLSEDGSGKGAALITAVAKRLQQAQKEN
# [29] = target: Beta-galactosidase (Escherichia coli, UniProt Q8VNN2); assay: detection-enzyme interference by beta-gal modulators – biochemical, E. coli enzyme, set 3, artefact control for CCR6 antagonist project, dose response (AID 504712); format: functional
# [30] = target: C-C chemokine receptor type 6 (Homo sapiens, UniProt P51684); assay: antagonism of CCR6 beta-arrestin recruitment – cell-based, luminescent beta-arrestin readout, dose response (AID 504728); format: functional
# [31] = target: Peroxisome proliferator-activated receptor gamma (Homo sapiens, UniProt P37231); assay: PPARg transcriptional activation, reporter cells – cell-based, luminescence, assay provider, dose response (AID 504447); format: functional
# [32] = target: Peroxisome proliferator-activated receptor alpha (Homo sapiens, UniProt Q07869); assay: Late stage assay provider counterscreen for partial agonists of the peroxisome proliferator-activated receptor gamma (PPARg): Luminescence-based cell-based dose response assay for partial agonists of the peroxisome proliferator-activated receptor alpha (PPARA). [Related pubchem assays (depositor defined):AID1051, AID1300, AID1319, AID1679, AID1808, AID504446, AID504447, AID504452, AID504453, AID631]; format: functional
# Sequence of Peroxisome proliferator-activated receptor alpha (Q07869 whole entry): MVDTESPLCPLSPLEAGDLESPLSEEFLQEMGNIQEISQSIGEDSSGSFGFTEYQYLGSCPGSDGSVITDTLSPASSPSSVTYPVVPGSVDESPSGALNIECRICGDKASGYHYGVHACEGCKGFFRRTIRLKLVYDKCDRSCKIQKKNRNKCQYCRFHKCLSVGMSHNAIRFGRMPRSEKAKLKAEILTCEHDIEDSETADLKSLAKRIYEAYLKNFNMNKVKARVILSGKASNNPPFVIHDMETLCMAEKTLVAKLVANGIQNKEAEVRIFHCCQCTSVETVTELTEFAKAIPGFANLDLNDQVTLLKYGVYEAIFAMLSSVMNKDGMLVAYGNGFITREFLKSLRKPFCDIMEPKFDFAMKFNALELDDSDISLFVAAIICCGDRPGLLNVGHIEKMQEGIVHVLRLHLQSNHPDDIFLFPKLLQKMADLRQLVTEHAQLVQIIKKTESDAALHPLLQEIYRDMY
# T6 sequence (P34972 whole entry): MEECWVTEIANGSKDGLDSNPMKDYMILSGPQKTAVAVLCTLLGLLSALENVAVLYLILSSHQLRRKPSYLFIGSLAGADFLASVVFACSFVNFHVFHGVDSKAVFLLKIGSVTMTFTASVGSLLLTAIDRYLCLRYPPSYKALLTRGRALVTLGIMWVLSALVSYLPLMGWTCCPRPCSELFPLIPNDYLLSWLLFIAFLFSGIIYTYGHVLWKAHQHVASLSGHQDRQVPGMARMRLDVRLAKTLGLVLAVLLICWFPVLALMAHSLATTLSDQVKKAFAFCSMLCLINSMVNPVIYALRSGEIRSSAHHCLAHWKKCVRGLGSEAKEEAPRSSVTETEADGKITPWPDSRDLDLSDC
# T7 sequence (P21554 whole entry): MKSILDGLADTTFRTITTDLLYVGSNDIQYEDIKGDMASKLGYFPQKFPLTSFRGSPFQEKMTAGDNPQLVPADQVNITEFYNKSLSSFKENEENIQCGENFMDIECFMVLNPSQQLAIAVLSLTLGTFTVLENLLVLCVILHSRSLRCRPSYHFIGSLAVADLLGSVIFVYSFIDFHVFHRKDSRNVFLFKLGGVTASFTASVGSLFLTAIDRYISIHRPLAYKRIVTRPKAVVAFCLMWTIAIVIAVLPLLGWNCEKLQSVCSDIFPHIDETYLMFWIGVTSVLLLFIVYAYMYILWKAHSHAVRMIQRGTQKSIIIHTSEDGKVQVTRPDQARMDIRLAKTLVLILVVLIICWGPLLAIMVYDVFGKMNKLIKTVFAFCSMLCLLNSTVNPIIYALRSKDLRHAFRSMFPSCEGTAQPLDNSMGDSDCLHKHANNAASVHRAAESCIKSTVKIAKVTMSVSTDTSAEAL
# T5 sequence (Q9HC97 whole entry): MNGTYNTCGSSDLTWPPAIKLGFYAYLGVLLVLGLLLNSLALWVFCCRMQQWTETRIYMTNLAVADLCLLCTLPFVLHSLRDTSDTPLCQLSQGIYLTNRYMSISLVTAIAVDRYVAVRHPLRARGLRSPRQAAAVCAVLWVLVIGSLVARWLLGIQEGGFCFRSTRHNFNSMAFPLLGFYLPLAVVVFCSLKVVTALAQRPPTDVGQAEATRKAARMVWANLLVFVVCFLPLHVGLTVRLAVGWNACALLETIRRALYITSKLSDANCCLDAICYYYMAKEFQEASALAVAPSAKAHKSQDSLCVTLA
# Sequence of Intestinal-type alkaline phosphatase (Mus musculus, UniProt P24822) (P24822 whole entry): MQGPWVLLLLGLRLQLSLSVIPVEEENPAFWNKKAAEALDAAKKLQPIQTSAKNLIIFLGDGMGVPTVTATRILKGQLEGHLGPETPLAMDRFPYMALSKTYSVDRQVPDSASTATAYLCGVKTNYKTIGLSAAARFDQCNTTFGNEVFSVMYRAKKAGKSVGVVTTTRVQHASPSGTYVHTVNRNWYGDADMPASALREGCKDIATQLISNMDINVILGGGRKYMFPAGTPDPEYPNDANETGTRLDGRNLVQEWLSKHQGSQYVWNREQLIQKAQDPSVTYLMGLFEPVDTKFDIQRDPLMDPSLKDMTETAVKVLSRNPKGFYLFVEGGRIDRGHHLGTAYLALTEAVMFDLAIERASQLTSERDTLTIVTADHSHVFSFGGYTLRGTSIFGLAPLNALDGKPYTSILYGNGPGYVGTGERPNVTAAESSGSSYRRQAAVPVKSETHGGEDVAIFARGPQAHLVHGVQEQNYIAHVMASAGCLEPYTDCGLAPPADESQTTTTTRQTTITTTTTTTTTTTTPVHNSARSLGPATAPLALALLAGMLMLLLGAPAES
# Sequence of Albumin (P02769 whole entry): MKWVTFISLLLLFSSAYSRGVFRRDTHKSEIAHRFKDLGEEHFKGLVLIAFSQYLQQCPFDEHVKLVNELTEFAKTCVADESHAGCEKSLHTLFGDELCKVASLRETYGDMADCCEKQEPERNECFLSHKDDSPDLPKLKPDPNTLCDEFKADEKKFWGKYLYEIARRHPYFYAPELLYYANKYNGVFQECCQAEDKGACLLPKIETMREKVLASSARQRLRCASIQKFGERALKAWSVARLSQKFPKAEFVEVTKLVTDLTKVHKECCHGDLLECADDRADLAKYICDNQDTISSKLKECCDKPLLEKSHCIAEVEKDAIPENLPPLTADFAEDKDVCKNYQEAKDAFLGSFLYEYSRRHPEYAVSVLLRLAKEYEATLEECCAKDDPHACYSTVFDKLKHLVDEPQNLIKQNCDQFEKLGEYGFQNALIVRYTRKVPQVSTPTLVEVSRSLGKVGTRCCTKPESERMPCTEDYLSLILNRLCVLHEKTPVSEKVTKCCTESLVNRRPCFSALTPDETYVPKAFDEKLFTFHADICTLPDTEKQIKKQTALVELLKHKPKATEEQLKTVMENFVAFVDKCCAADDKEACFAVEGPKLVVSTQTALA
# Sequence of Intestinal-type alkaline phosphatase (Homo sapiens, UniProt P09923) (P09923 whole entry): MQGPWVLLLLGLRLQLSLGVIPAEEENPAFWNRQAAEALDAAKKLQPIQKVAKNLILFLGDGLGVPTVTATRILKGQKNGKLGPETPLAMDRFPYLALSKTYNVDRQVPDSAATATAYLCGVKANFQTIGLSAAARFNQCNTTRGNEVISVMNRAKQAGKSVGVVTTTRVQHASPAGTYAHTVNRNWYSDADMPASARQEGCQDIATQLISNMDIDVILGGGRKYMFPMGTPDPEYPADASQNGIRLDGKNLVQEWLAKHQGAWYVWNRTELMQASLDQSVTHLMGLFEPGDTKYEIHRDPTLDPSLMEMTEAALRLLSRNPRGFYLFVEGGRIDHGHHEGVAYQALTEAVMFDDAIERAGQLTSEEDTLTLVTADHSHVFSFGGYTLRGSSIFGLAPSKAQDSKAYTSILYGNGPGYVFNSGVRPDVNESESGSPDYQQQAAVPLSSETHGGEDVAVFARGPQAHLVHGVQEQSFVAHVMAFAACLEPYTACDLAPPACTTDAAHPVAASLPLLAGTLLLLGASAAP
# Sequence of G-protein coupled receptor 55 (Q9Y2T6 whole entry, the tested form may be a part): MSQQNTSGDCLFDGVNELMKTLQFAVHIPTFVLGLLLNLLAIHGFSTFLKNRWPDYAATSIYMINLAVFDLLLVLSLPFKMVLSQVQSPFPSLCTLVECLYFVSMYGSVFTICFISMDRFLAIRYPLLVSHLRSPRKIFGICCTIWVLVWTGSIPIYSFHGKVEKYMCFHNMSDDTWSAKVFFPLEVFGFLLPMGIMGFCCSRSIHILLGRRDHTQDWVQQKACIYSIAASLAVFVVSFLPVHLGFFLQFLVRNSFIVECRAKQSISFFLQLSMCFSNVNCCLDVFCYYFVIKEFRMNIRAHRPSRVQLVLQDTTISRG
# Sequence of Hexokinase-1 (P19367 whole entry): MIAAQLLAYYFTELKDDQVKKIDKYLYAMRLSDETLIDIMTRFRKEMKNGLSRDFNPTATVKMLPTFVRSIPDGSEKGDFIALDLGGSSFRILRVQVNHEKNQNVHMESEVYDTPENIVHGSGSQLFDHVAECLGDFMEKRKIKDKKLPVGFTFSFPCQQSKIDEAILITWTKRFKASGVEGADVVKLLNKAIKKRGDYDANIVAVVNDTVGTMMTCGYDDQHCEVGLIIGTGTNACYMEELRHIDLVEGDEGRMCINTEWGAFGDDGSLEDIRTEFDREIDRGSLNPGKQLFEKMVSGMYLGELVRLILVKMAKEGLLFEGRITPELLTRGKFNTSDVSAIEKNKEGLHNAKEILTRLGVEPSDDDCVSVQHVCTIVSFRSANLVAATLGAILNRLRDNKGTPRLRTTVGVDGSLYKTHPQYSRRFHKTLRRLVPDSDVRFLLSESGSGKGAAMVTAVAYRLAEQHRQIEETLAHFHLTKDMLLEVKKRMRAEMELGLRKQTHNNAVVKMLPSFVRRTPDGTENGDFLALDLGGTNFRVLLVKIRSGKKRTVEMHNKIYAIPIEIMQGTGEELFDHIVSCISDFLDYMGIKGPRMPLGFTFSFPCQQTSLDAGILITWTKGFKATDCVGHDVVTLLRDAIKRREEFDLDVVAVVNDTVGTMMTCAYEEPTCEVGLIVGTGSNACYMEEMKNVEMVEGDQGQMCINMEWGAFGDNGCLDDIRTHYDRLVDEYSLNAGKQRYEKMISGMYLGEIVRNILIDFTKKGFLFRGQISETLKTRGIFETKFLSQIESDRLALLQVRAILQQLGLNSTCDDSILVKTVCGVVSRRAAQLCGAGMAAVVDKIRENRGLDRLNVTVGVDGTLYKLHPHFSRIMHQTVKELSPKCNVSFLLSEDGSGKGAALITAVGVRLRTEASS
# Sequence of CAAX prenyl protease 2 (Homo sapiens, UniProt Q9Y256) (Q9Y256 whole entry): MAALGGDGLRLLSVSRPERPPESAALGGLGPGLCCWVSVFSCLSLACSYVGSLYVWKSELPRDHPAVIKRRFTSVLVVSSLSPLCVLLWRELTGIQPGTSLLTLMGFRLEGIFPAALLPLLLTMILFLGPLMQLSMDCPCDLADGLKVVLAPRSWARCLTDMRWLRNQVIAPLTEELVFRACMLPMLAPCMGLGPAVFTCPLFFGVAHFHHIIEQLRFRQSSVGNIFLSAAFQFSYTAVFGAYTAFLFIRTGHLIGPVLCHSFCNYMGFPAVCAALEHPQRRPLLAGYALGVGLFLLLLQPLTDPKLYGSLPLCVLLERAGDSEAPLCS
smiles,measurement,setting,value
O=C(NNC(=S)NC(=O)c1cccs1)c1ccc(O)cc1,EC50,[1],> 100 µM (inactive)
same,IC50,[2],> 94 µM (inactive)
same,IC50,[3],11.9 µM (active)
same,IC50,[4],> 100 µM (inactive)
O=C1C(=O)N(C/C=C/c2ccccc2)c2ccccc21,EC50,[5],14.9 µM (active)
same,AC50,[6],64.6 µM (active)
same,EC50,[7],39.8 µM (active)
same,AC50,[8],1.92 µM (active)
same,AC50,[9],5.17 µM (active)
same,EC50,[10],8.22 µM (inconclusive)
same,EC50,[11],> 150 µM (not active)
CC(C)n1c(C(=O)OCC(=O)NCc2ccc3c(c2)OCO3)cc2occc21,IC50,[12],> 79.4 µM (inactive)
same,IC50,[13],> 79.4 µM (inactive)
same,IC50,[14],> 79.4 µM (inactive)
Cc1cc(OCC(=O)Nc2ccc(S(=O)(=O)NC3=NCCCCC3)cc2)c(C(C)C)cc1Cl,IC50,[15],> 32 µM (inactive)
same,EC50,[16],> 32 µM (inactive)
same,AC50,[17],6.13 µM (active)
same,IC50,[18],> 32 µM (inactive)
same,IC50,[19],3.16 µM (active)
same,EC50,[20],> 32 µM (inactive)
same,EC50,[21],> 32 µM (inactive)
same,IC50,[22],1.08 µM (active)
COC(=O)C1=C(C(=O)OC)SC2(S1)C(C(=O)OC)=C(C(=O)OC)Sc1c2ssc1=O,IC50,[23],0.727 µM (active)
same,IC50,[24],14.1 µM (inactive)
same,EC50,[25],49.6 µM (inactive)
same,IC50,[26],> 80 µM (inactive)
same,AC50,[27],4.21 µM (active)
same,EC50,[28],33.1 µM (inactive)
same,IC50,[29],> 66.6 µM (inactive)
same,IC50,[30],28.5 µM (inactive)
CCOc1cccc(/C=C2/SC(=S)N(CCC(=O)O)C2=O)c1,EC50,[31],2.6 µM (active)
same,EC50,[32],> 3 µM (inactive)

# Reference: ChEMBL document CHEMBL1201862, “PubChem BioAssay data set” (2004)
